Measured values: patent US20240316047A1, “INHIBITORS OF RNA HELICASE DHX9 AND USES THEREOF” (ACCENT THERAPEUTICS, INC., priority 2022, published 2024)

Target: Human recombinant DHX9 protein (Homo sapiens (Human), UniProt Q08211)
Assay: DHX9 ATPase assay (ADP-Glo)
Assay type: biochemical
Conditions: for IC50: read-out: DHX9 Biochemical Inflection Point

Human recombinant DHX9 protein, sequence (Q08211 whole entry): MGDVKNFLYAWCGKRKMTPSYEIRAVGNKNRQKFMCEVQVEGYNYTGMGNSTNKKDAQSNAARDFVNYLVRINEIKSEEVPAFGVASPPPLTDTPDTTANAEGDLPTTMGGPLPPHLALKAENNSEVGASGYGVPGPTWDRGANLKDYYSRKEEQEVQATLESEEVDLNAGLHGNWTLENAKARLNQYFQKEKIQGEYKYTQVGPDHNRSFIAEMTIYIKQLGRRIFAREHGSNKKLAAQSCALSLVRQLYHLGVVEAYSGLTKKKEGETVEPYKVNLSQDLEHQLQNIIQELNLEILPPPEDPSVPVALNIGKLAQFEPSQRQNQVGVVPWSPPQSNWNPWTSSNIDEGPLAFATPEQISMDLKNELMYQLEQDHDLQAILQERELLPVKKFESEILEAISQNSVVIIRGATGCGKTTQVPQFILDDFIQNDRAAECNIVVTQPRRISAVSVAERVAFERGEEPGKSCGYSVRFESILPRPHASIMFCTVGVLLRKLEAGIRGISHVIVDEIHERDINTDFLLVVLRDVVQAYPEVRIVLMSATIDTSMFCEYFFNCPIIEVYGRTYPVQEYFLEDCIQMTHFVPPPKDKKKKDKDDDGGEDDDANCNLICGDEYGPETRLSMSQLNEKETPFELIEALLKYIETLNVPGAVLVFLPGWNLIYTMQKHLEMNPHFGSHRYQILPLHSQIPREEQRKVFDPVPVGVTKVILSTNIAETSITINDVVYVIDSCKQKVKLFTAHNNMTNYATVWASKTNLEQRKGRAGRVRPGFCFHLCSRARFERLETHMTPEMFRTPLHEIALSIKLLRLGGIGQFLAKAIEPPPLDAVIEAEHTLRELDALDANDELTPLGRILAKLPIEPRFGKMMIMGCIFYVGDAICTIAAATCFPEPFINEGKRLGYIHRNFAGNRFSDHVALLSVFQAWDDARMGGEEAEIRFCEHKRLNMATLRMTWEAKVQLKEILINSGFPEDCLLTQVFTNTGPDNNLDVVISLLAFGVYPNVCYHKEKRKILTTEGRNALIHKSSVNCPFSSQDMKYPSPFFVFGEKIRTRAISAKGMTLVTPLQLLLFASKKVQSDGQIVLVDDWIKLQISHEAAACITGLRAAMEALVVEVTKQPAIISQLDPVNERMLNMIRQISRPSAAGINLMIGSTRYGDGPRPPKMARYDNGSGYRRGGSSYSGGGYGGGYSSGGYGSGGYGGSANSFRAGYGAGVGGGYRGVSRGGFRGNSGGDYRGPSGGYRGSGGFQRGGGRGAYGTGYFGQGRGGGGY

DHX9 Biochemical Max Inhibition | IC50 [nM] | SMILES
66.6 | 59.2 | Cc1sc(C(=O)Nc2cc(Cl)cc(NS(C)(=O)=O)c2)cc1-c1ncc(C2CCN(CC(F)(F)F)CC2)cc1F [Example 618]
71.4 | 3.4 | Cc1sc(C(=O)Nc2cc(Cl)cc(NS(C)(=O)=O)c2)cc1-c1ncc(OC2CNC2)cc1F [Example 637]
61.5 | 18.7 | Cc1sc(C(=O)Nc2cc(Cl)cc(NS(C)(=O)=O)c2)cc1-n1cc(F)cn1 [Example 439]
84.6% | 9.5 | COCc1sc(C(=O)Nc2cc(Cl)cc(NS(C)(=O)=O)c2)cc1-c1ccccn1 [Example 234]
71% | 10.7 | CCOc1ccc(-c2csc(C(=O)Nc3cc(Cl)cc(NS(C)(=O)=O)c3)c2)nc1 [Example 339]
70.8 | 10.5 | Cc1sc(C(=O)Nc2cc(Cl)cc(NS(C)(=O)=O)c2)cc1-c1ncc(F)cc1OCc1cnco1 [Example 732]
74.2 | 56.2 | CS(=O)(=O)Nc1cc(Cl)cc(NC(=O)c2cc(-c3ncc(F)cn3)n(C3CC3)c2)c1 [Example 712]
70% | 15.2 | Cc1cc(C(=O)Nc2cc(Cl)cc(NS(C)(=O)=O)c2)cn1-c1ncc(F)cn1 [Example 207]
65.9% | 93 | CS(=O)(=O)Nc1cc(Cl)cc(NC(=O)c2cc3ccncc3s2)c1 [Example 230]
75.7 | 2 | Cc1sc(C(=O)Nc2cc(Cl)cc(NS(C)(=O)=O)c2)cc1-c1ncc(C(C)(O)C2CN(C)C2)cc1F (stereo not shown) [Example 653]
67.4 | 146 | Cc1sc(C(=O)Nc2cc(Cl)cc(NS(C)(=O)=O)c2)cc1-c1ncc(N2CCC3(C2)CC3(F)F)cc1F (stereo not shown) [Example 480]
72.9 | 39.1 | Cc1cc(C(=O)Nc2cc(Cl)cc(NS(C)(=O)=O)c2)cn1-c1ncc(F)cc1F [Example 444]
67.5 | 24.6 | Cc1sc(C(=O)Nc2cc(Cl)cc(NS(C)(=O)=O)c2)cc1-c1ncc(F)cc1-c1ccn(C)c(=O)c1 [Example 605]
65.6% | 1.8 | CS(=O)(=O)Nc1cc(Cl)cc(NC(=O)c2cc(-c3ncccn3)cs2)c1 [Example 26]
77.1% | 33.6 | Cc1sc(C(=O)Nc2cc(Cl)cc(NS(C)(=O)=O)c2)cc1-c1ncc(OC(F)F)cn1 [Example 345]
67.1% |  | CCS(=O)(=O)Nc1cc(Cl)cc(NC(=O)c2cc(-c3ncc(F)cc3C)c(C)s2)c1 [Example 350]
68.7% | 33.5 | Cc1sc(C(=O)Nc2cc(Cl)cc(NS(C)(=O)=O)c2)cc1-c1ccc(OC(C)(C)C)cn1 [Example 380]
69.1 | 6.9 | Cc1sc(C(=O)Nc2cc(Cl)cc(NS(C)(=O)=O)c2)cc1-c1ncc(P(C)(C)=O)cn1 [Example 648]
60.2 |  | CC(C)Oc1cnc(-c2csc(C(=O)Nc3cc(Cl)cc(NS(C)(=O)=O)c3)c2)c(F)c1 [Example 458]
66.7 | 1750 | CS(=O)(=O)Nc1cc(Cl)cc(NC(=O)c2cc(-c3ncc(F)cn3)c(C3CC3)s2)c1 [Example 448]
71.9 | 19.5 | Cc1sc(C(=O)Nc2cc(Cl)cc(NS(C)(=O)=O)c2)cc1-c1ccc(N2CC(C(F)(F)F)C2)cn1 [Example 496]
67.5 | 17.4 | Cn1cc(C(=O)Nc2cc(Cl)cc(NS(C)(=O)=O)c2)cc1-c1ncc(F)cc1F [Example 540, N-(3-chloro-5-methanesulfonamidophenyl)-5-(3,5-difluoropyridin-2-yl)-1-methyl-1H-pyrrole-3-carboxamide]
58.7% | 132 | CS(=O)(=O)Nc1cc(Cl)cc(NC(=O)c2cc3cnccc3s2)c1 [Example 288]

Further lines, the compound ahead of its results:

SMILES | DHX9 Biochemical Max Inhibition | IC50 [nM]
Cn1cc(C(=O)Nc2cc(Cl)cc(NS(C)(=O)=O)c2)cc1-c1ccc(N2CC(S(C)(=O)=O)C2)cn1 [Example 519] | 71.2 | 8.1
Cc1cc(C(=O)Nc2cc(Cl)cc(NS(C)(=O)=O)c2)cn1-c1ncccc1OCC1CC1 [Example 713] | 76 | 25
CS(=O)(=O)Nc1cc(Cl)cc(NC(=O)c2cc(-c3ncc(F)cc3OCc3cncc(F)c3)cs2)c1 [Example 225] | 74.2% | 6.9
Cn1cc(C(=O)Nc2cc(Cl)cc(NS(C)(=O)=O)c2)cc1-c1ncccc1OCC1CC1 [Example 584] | 63.5 | 17
Cn1cc(C(=O)Nc2cc(Cl)cc(NS(C)(=O)=O)c2)cc1-c1ncc(N2CC(F)(F)C2)cc1OCc1cnco1 [Example 733] | 61.3 | 21.8
CS(=O)(=O)Nc1cc(Cl)cc(NC(=O)c2cnn(-c3c(F)cccc3OCc3cncc(F)c3)c2)c1 [Example 718] | 72.7 | 15.7
Cn1cc(C(=O)Nc2cc(Cl)cc(NS(C)(=O)=O)c2)cc1-c1ncc(N2CC(C(F)(F)F)C2)cn1 [Example 493] | 67 | 24.8
CN1CCN(c2csc(C(=O)Nc3cc(Cl)cc(NS(C)(=O)=O)c3)c2)C1=O [Example 431] | 73.5 | 8.6
CS(=O)(=O)Nc1cc(Cl)cc(NC(=O)c2cnn(-c3ncccc3OCc3ccccn3)c2)c1 [Example 63] | 66.2% | 83.9
CS(=O)(=O)Nc1cc(Br)cc(NC(=O)c2cc(-c3cccnc3)cs2)c1 [Example 78] | 56.2% | 31.9
Cn1cc(C(=O)Nc2cc(Cl)cc(NS(C)(=O)=O)c2)cc1-c1ccccc1 [Example 109] | 57.2% | 17.6
CS(=O)(=O)Nc1cc(Br)cc(NC(=O)c2cnn(-c3ccc(C(F)(F)F)cn3)c2)c1 [Example 43] | 49.8% | 258
Cn1cc(C(=O)Nc2cc(Cl)cc(NS(C)(=O)=O)c2)cc1-c1ccc(N2CCN(C(=O)C3CC3)CC2)cn1 [Example 594] | 80.1 | 10.9
CC(Oc1cccnc1-n1cc(C(=O)Nc2cc(Cl)cc(NS(C)(=O)=O)c2)cn1)c1ccccc1 (stereo not shown) [Example 62] | 58.4% | 211
CS(=O)(=O)Nc1cc(Cl)cc(NC(=O)c2cnn(-c3ccc(N4CCn5ccnc5C4)cn3)c2)c1 [Example 192] | 72.6% | 16.5
CCS(=O)(=O)Nc1cc(Cl)cc(NC(=O)c2cc(C)n(-c3ccc(N4CCOCC4)cn3)c2)c1 [Example 249] | 64.1% | 2.8
CCS(=O)(=O)Nc1cc(Cl)cc(NC(=O)c2cc(-c3ncc(F)cc3F)n(C)c2)c1 [Example 543] | 60.2 | 48.6

SMILES | DHX9 Biochemical Max Inhibition | IC50 [nM]
CC(=O)N1CCN(c2ccnc(-n3cc(C(=O)Nc4cc(Cl)cc(NS(C)(=O)=O)c4)cn3)c2)CC1 [Example 148, 1-(4-(4-acetylpiperazin-1-yl)pyridin-2-yl)-N-(3-chloro-5-(methylsulfonamido)phenyl)-1H-pyrazole-4-carboxamide] | 63.3% | 18.5
CS(=O)(=O)Nc1cc(Cl)cc(NC(=O)c2cc3cnccn3c2)c1 [Example 330] | 61.9% | 88
CCS(=O)(=O)Nc1cc(Cl)cc(NC(=O)c2cc(-c3ncccc3C)cs2)c1 [Example 224] | 67.3% | 6.4
CS(=O)(=O)Nc1cc(F)cc(NC(=O)c2c[nH]c(Br)c2)c1 [Example 2] | 64.8% | 173
Cn1cc(C(=O)Nc2cc(Cl)cc(NS(C)(=O)=O)c2)cc1-c1ccc(F)cn1 [Example 575] | 76.2 | 17.7
Cc1cc(C(=O)Nc2cc(Cl)cc(NS(C)(=O)=O)c2)cn1-c1ccc(F)cn1 [Example 390] | 80.4% | 1.5
CS(=O)(=O)Nc1cc(Cl)cc(NC(=O)c2cc(-c3ncccc3OCc3ccccc3)cs2)c1 [Example 29] | 65.2% | 48.2
Cn1cc(C(=O)Nc2cc(Cl)cc(NS(C)(=O)=O)c2)cc1-c1ncccc1Oc1cccnc1 [Example 655] | 67.8 | 11.4
CS(=O)(=O)Nc1cc(Cl)cc(NC(=O)c2cc(C(F)(F)F)n(-c3ccc(F)cn3)c2)c1 [Example 267] | 66.4% | 248
Cn1cc(C(=O)Nc2cc(Cl)cc(NS(C)(=O)=O)c2)cc1-c1ncc(F)cc1Cl [Example 544] | 66.5 | 59
CS(=O)(=O)Nc1cc(Cl)cc(NC(=O)c2cnn(-c3ncccc3OCc3cccc(O)c3)c2)c1 [Example 179] | 72.3% | 27.2
CS(=O)(=O)Nc1cc(Cl)cc(NC(=O)c2cc3c(C(F)(F)F)cccn3c2)c1 [Example 302] | 54.6% | 640
CS(=O)(=O)Nc1cc(Cl)cc(NC(=O)c2csc(-c3ccccc3)c2)c1 [Example 124, N-(3-chloro-5-(methylsulfonamido)phenyl)-5-phenylthiophene-3-carboxamide] | 53.8% | 604
Cn1cc(C(=O)Nc2cc(Cl)cc(NS(C)(=O)=O)c2)cc1-c1ncc(N2CC[Si](C)(C)CC2)cc1F [Example 470] | 93.8 | 125
CCOc1cnc(-n2cc(C(=O)Nc3cc(Cl)cc(NS(C)(=O)=O)c3)cc2C(F)(F)F)nc1 [Example 693] | 64.9 | 408
CS(=O)(=O)Nc1cc(Cl)cc(NC(=O)c2cnn(-c3ncccc3OCc3ncc[nH]3)c2)c1 [Example 252] | 72.1% | 48.9
Cc1cc(C(=O)Nc2cc(F)cc(NS(C)(=O)=O)c2)c[nH]1 [Example 5] | 74.6% | 215
